From ChEMBL document CHEMBL3392998 (J Med Chem, 2014)

How the values were obtained:
[1] = molecular target: Human immunodeficiency virus type 1 protease (Human immunodeficiency virus 1, UniProt Q72874, A71V/G73S/I84V/L10I/L63P/L90M); experiment: Inhibition of multidrug resistant HIV-1 protease L10I/L63P/A71V/G73S/I84V/L90M mutant using fluorogenic peptide substrate incubated for 30 mins prior to substrate addition measured after 10 mins by FRET assay
Protease = Protease (Human immunodeficiency virus 1, UniProt Q9YQ12); experiment: Inhibition of wild-type HIV-1 protease using fluorogenic peptide substrate incubated for 30 mins prior to substrate addition measured after 10 mins by FRET assay
Protease, sequence (Q9YQ12 whole entry): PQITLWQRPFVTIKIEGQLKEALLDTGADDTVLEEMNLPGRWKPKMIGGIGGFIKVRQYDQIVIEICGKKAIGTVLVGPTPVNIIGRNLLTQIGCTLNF

Human immunodeficiency virus type 1 protease, sequence (Q72874 entry or part of it A71V/G73S/I84V/L10I/L63P/L90M): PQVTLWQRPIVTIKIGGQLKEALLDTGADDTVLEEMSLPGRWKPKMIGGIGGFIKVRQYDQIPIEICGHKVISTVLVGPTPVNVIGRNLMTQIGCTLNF

For `O=C1c2cccc([N+](=O)[O-])c2C(=O)N1c1ccc2[nH]c(=S)sc2c1`, the Ki [1] was 91 µM and the Ki (Protease) was 96 µM.
